Reference: BindingDB's records for patent US20250326732 (Pretzel Therapeutics, 2025)

These compounds were tested against DNA-directed RNA polymerase, mitochondrial (Homo sapiens, UniProt O00411) (assay: Biological/Biochemical Evaluation).
Method: The ability of some compounds of the present invention to inhibit POLRMT were determined in a homogeneous TR-FRET Assay using high-throughput screening in a 384-well plate format. […] Detection of the product is facilitated by hybridization of two DNA-oligonucleotide probes to specific and adjacent sequences within the RNA product sequence. Upon annealing of the probes, two fluorophores are coupled directly to an acceptor nucleotide probe (ATTO647, 5′), or introduced via a coupled streptavidin with a biotinylated donor nucleotide probe (Europium cryptate) that is brought into sufficient proximity to serve as a fluorescence-donor-acceptor pair. […] The DNA template is restriction linearized proximal to the promotor 3′-end (pUC-LSP). […] No nucleotide triphosphate mix is added to negative control samples. Microplates with compounds to be tested in the assay are prepared from 10 mM compound stocks in 100% DMSO, equal amounts of DMSO without any compound are added to positive control and negative control samples.

Chain of DNA-directed RNA polymerase, mitochondrial (O00411 whole entry): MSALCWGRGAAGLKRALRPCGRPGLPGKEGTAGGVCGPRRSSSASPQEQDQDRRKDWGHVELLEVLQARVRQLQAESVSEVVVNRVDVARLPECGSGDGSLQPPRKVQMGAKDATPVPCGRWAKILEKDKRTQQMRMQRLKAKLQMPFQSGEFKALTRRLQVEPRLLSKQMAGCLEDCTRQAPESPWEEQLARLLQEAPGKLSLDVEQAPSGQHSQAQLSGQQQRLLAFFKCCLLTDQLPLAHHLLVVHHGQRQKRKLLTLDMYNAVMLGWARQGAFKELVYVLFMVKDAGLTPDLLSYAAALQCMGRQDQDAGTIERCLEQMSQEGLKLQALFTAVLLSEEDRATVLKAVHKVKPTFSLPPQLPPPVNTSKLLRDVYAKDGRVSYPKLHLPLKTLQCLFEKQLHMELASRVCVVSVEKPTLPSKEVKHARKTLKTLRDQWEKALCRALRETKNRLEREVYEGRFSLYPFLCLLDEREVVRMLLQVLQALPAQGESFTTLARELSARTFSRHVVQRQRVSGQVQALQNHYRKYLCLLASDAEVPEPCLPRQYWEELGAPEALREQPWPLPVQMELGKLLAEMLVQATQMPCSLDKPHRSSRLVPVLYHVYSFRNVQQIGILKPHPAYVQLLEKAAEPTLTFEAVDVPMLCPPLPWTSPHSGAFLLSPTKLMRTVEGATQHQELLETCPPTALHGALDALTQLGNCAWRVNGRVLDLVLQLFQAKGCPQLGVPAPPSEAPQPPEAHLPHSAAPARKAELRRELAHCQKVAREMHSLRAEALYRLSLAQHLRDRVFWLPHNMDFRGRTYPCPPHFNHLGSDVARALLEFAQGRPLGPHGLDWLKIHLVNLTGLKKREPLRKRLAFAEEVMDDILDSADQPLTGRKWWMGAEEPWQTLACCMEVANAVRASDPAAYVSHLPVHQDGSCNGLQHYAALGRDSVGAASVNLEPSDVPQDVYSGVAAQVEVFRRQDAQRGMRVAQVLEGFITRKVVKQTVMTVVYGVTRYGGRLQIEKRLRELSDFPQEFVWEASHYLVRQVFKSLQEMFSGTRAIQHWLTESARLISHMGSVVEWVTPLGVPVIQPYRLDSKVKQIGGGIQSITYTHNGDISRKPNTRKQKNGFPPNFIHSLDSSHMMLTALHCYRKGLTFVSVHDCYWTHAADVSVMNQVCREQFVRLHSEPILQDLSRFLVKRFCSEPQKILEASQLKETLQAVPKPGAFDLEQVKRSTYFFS

Going from `COC=C(Cc1ccc2c(-c3ccccc3C)cc(=O)oc2c1)C(N)=O` [US20250326732, Example 208] to `CC(=Cc1ccc2c(-c3ccccc3C)cc(=O)oc2c1)C(N)=O` [US20250326732, Example 68], the IC50 falls from 3000 nM to 600 nM (5-fold).

First: CC(=Cc1ccc2c(-c3ccccc3C)cc(=O)oc2c1)C(=O)N(C)C [US20250326732, Example 65]
Second: CNC(=O)C(C)=Cc1ccc2c(-c3ccccc3C)cc(=O)oc2c1 [US20250326732, Example 66]
The IC50 of the first is 34-fold higher: 17000 nM for the first, 500 nM for the second.

Compared with `C=C(Nc1ccc2c(-c3ccccc3C)cc(=O)oc2c1)C(N)=O` [US20250326732, Example 189], `COC=C(Cc1ccc2c(-c3ccccc3C)cc(=O)oc2c1)C(N)=O` [US20250326732, Example 207] is 19-fold higher in IC50: 900 nM for the first, 17000 nM for the second. The first is the more potent here.

Compared with `COC=C(Nc1ccc2c(-c3ccccc3)cc(=O)oc2c1)C(N)=O` [US20250326732, Example 198], `CNC(=O)C(C)=Cc1ccc2c(-c3ccccc3C)cc(=O)oc2c1` [US20250326732, Example 67] is 3-fold higher in IC50: 2000 nM for the first, 6000 nM for the second. The first is the more potent here.

Compared with `CC(=Cc1ccc2c(-c3ccccc3C)cc(=O)oc2c1)C(=O)N(C)C` [US20250326732, Example 64], `CN(C=CC(N)=O)c1ccc2c(-c3ccc(F)cc3Cl)cc(=O)oc2c1` [US20250326732, Example 137] is 3-fold higher in IC50: 300 nM for the first, 900 nM for the second.
